Literature values, collected in US20090214462A1, “COCKCROACH JELLY BAIT” (priority 2004, published 2009).

System: cockroaches
Conditions: kill by intake; general statement

SMILES | Time until cockroaches die after intake
OB(O)O [Boric acid] | one to eight
CCOP(=S)(OCC)Oc1nc(Cl)c(Cl)cc1Cl [Chlorpyrifos] | 2 to 3 days
